Values of other authors, collected in patent US11459445B2, “Composition and molded body” (SUMITOMO CHEMICAL COMPANY, LIMITED, priority 2018, dated 2022).

Tested on: C. violaceum CV026
Settings: N-hexanoyl homoserine lactone added; compared with no caffeine; Sensors 2013, 13, 5117-5129

## Cn1c(=O)c2c(ncn2C)n(C)c1=O [caffeine]
  amount of violet pigment (violacein) produced: smaller
